Measurements as given in publication PMC6680932, “Structure–Antioxidant–Antiproliferative Activity Relationships of Natural C7 and C7–C8 Hydroxylated Flavones and Flavanones” (Antioxidants, 2019).

Legend:
[1] = Stability of flavonoids in DMSO (control), HPLC; assay type: physicochemical; conditions: 3 h of incubation
Experimental: (§1) Flavonoids were dissolved (as described in Section 2.4) to the concentration of 100 µg/mL. The solutions corresponding to the solutions before the administration to the cell cultures were incubated in 96-well plates for 3 h and transferred to microtubes containing 400 µL of cold methanol (−20 °C) and kept at −20 °C for 1 h. After centrifugation at 12,000× g for 10 min, samples were analyzed by HPLC. Control experiments were also carried out to determine the stability of flavonoids in DMSO under analogous conditions.

[2] = ABTS radical cation decolorization assay; conditions: 6 min incubation, 734 nm; mean ± SD
Experimental: (§2) The antioxidant capacity of flavonoids was measured in three separate tests: ABTS, DPPH, and ferric ion reducing antioxidant power (FRAP) assays (ABTS, DPPH, and FRAP reagents from Sigma-Aldrich). All tested compounds were dissolved in DMSO. All determinations were performed in triplicate. Standard curves were prepared for all assays using different concentrations of Trolox (6-hydroxy-2,5,7,8-tetramethylchroman-2-carboxylic acid) (Sigma-Aldrich). Trolox is a water-soluble analogue of vitamin E with high antioxidant activity, commonly used as a control and a reference in studies of antioxidant activity. The results were expressed as the equivalent of μmol Trolox per μmol of the test compound. The absorbance was measured using a UV-2401 PC spectrophotometer (Shimadzu, Kyoto, Japan). Concentrations of the tested samples were in the range from 50 µg/mL to 10 mg/mL.
The radical cation scavenging capacity of the tested compounds was examined against ABTS^+ (2,2’-azino-bis(3-ethylbenzo-thiazoline-6-sulfonic acid) according to the procedure described by Re et al. with some modifications. The test sample (30 μL) of known concentration was mixed in a polystyrene cuvette with 3 mL of ABTS solution with a measured absorption of 0.700 at a wavelength of λ = 734 nm. After 6 min of incubation, the absorption of samples was recorded. The ABTS reagent was freshly prepared before each experiment.

[3] = Stability of flavonoids before administration to the cell cultures (diluted in RPMI 1640/Opti-MEM medium), HPLC; assay type: physicochemical; conditions: 100 µg/mL, medium with 2 mM L-glutamine, 5% fetal bovine serum, penicillin, streptomycin; 3 h incubation
Experimental: Tested compounds were dissolved in DMSO and then diluted in a 1:1 (v/v) mixture of RPMI 1640 (HIIET, PAS, Wroclaw, Poland) and Opti-MEM (Gibco, Scotland, UK) medium supplemented with 2 mM L-glutamine (Sigma-Aldrich, Poznan, Poland), 5% fetal bovine serum (GE Healthcare), 100 units/mL penicillin (Polfa Tarchomin S.A., Warsaw, Poland), and 100 µg/mL streptomycin (Sigma-Aldrich, Poznan, Poland). The antiproliferative effects of the flavonoids were examined after 72 h of exposure of the cultured cells to varying concentrations of the tested agents (from 0.1 to 100 μg/mL) using the MTT (for MV-4-11 cells) or SRB assay described below. Cisplatin (chemotherapy drug used to treat a number of cancers) was used as a positive control. The results are presented as an inhibitory concentration 50 (IC50), which is the concentration of the tested agent that inhibits proliferation of the cell population by 50%. IC50 values for each experiment were calculated separately.
as §1

[4] = DPPH free radical scavenging activity assay; conditions: 10 min, 517 nm; mean ± SD
Experimental: as §2
The DPPH (2,2-diphenyl-1-picrylhydrazyl) radical scavenging activity of samples was determined according to the method described by Yen and Chen with some modifications. Samples (0.1 mL) of known concentration were mixed in polystyrene cuvettes with 2 mL of 0.04 mM DPPH in ethanol and 0.4 mL of ethanol. The absorbance was measured after 10 min at λ = 517 nm. The DPPH reagent was freshly prepared before each experiment.

Row | SMILES | compound observed after incubation in DMSO [1] | TEAC ABTS [2] | stability after dilution with 1:1 RPMI 1640/Opti-MEM medium [3] | TEAC DPPH [4]
1 | O=C1C[C@@H](c2ccc(O)cc2)Oc2cc(O)cc(O)c21 [Compound 6, naringenin] | over 99% | 0.347 ± 0.020 µmol trolox per µmol of tested | stable | 0.017 ± 0.002 µmol trolox per µmol of tested
2 | O=c1cc(-c2ccc(O)cc2)oc2cc(O)cc(O)c12 [Compound 2, apigenin] | over 99% | 0.250 ± 0.014 µmol trolox per µmol of tested | stable | 0.005 ± 0.002 µmol trolox per µmol of tested
3 | O=c1cc(-c2ccc(O)cc2)oc2c(O)c(O)cc(O)c12 [Compound 10, 8-hydroxyapigenin] | over 99% | 10.184 ± 1.768 µmol trolox per µmol of tested | complete decomposition | 5.560 ± 0.121 µmol trolox per µmol of tested
